Laboratory results as given in patent US10233177B2, “TRPV1 vanilloid receptor antagonists with a bicyclic portion” (Serentrix LLC, priority 2010, dated 2019).
Like-named read-outs stand apart in the source and are kept apart here.

Target: TRPV1 (Rattus norvegicus (Rat), UniProt O35433)
Assay: Ca2+ fluorescence measurements in cultured rat dorsal root ganglia neurons (capsaicin-induced calcium uptake)
Format: cell-based
Details: for inhibition at 0.3 µM: DRG neuron
[1] = 300 nM, rat DRG neurons, read-out: abolition of capsaicin response at 300 nM
[2] = Table 1, formula IA-C, 300 nM against calcium uptake induced by 30 nM capsaicin, rat DRG neurons, read-out: % inhibition at 300 nM
[3] = capsaicin-induced calcium uptake, rat DRG neurons, read-out: inhibition of the calcium uptake
[4] = Table 2, formula ID-E, 300 nM against calcium uptake induced by 30 nM capsaicin, rat DRG neurons, read-out: % inhibition at 300 nM
[5] = Table 3, formula IF-H, 300 nM against calcium uptake induced by 30 nM capsaicin, rat DRG neurons, read-out: % inhibition at 300 nM
[6] = Table 1, against capsaicin-evoked [Ca2+]i mobilization, rat DRG neurons, read-out: IC50
[7] = rat DRG neurons, read-out: IC50 against capsaicin-evoked [Ca2+]i mobilization

Sequence of TRPV1 (O35433 whole entry): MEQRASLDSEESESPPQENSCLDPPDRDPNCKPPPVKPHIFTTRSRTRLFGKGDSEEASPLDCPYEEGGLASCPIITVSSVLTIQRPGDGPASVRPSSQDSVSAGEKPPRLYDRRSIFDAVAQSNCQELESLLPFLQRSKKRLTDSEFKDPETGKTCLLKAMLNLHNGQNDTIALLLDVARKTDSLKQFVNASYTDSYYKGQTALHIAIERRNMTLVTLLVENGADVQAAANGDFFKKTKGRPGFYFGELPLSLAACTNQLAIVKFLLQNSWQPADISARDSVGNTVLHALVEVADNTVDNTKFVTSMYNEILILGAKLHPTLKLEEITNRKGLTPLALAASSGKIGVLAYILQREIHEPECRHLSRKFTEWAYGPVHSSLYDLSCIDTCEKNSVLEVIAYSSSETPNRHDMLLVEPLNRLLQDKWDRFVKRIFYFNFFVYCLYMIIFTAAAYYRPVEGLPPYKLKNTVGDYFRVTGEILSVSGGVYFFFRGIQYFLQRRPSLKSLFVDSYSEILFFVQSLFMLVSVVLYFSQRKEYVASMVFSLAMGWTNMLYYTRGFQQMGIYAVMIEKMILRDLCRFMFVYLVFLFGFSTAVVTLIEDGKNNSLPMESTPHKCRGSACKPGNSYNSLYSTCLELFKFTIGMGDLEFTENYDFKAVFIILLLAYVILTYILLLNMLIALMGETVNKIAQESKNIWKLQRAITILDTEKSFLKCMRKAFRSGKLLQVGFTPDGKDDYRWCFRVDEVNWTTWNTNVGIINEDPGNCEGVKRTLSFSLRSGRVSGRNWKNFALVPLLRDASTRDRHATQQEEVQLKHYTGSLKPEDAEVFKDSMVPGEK

Compound | inhibition at 0.3 µM [2] | inhibition at 0.3 µM [3] | other results
CN(C)c1cc(Cl)ccc1CNC(=O)Nc1cccc2c1OCC(=O)N2 [Example 50, 1-(4-chloro-2-(dimethylamino)benzyl)-3-(3,4-dihydro-3-oxo-2H-benzo[b][1,4]oxazin-8-yl)urea] | 52% | – | –
O=C1COc2c(cccc2NC(=O)NCc2ccc(Cl)cc2N2CCCCC2)N1 [Example 52, 1-(4-chloro-2-(piperidin-1-yl)benzyl)-3-(3,4-dihydro-3-oxo-2H-benzo[b][1,4]oxazin-8-yl)urea] | 98% | – | inhibition at 0.3 µM [1]: ~100%
Cc1ccc(CNC(=O)Nc2cccc3c2OCC(=O)N3)c(N2CCCCC2)c1 [Example 53, 1-(4-methyl-2-(piperidin-1-yl)benzyl)-3-(3,4-dihydro-3-oxo-2H-benzo[b][1,4]oxazin-8-yl)urea] | 90% | > 80% | inhibition at 0.3 µM [1]: ~100%
O=C1COc2c(cccc2NC(=O)NCc2ccc(Cl)nc2)N1 [Example 54, 1-((6-chloropyridin-3-yl)methyl)-3-(3,4-dihydro-3-oxo-2H-benzo[b][1,4]oxazin-8-yl)urea] | 55% | – | –
O=C(Cc1ccc(C(F)(F)F)cc1)Nc1cccc2[nH]c(=O)[nH]c12 [Example 55, 2-(4-(trifluoromethyl)phenyl)-N-(2,3-dihydro-2-oxo-1H-benzo[d]imidazol-4-yl)acetamide] | – | – | inhibition at 0.3 µM [4]: 10%
O=C(Cc1ccc(C(F)(F)F)cc1)Nc1cccc2oc(=O)[nH]c12 [Example 56, 2-(4-(trifluoromethyl)phenyl)-N-(2,3-dihydro-2-oxobenzo[d]oxazol-4-yl)acetamide] | – | – | inhibition at 0.3 µM [4]: 31%
O=C(Cc1ccc(C(F)(F)F)cc1)Nc1cccc2[nH]c(=O)oc12 [Example 57, 2-(4-(trifluoromethyl)phenyl)-N-(2,3-dihydro-2-oxobenzo[d]oxazol-7-yl)acetamide] | – | – | inhibition at 0.3 µM [4]: 7%
O=C(Cc1ccc(C(F)(F)F)cc1)Nc1cccc2c1NC(=O)CO2 [Example 58, 2-(4-(trifluoromethyl)phenyl)-N-(3,4-dihydro-3-oxo-2H-benzo[b][1,4]oxazin-5-yl)acetamide] | – | – | inhibition at 0.3 µM [4]: 43%
O=C(NCc1ccc(C(F)(F)F)cc1)c1cccc2oc(=O)[nH]c12 [Example 59, N-(4-(trifluoromethyl)benzyl)-2,3-dihydro-2-oxobenzo[d]oxazole-4-carboxamide] | – | – | inhibition at 0.3 µM [5]: 5%
O=C(NCc1ccc(C(F)(F)F)cc1N1CCCCC1)c1cccc2oc(=O)[nH]c12 [Example 60, N-(4-(trifluoromethyl)-2-(piperidin-1-yl)benzyl)-2,3-dihydro-2-oxobenzo[d]oxazole-4-carboxamide] | – | – | inhibition at 0.3 µM [5]: 8%
O=C(NCc1ccc(C(F)(F)F)cc1N1CCOCC1)c1cccc2oc(=O)[nH]c12 [Example 61, N-(4-(trifluoromethyl)-2-morpholinobenzyl)-2,3-dihydro-2-oxobenzo[d]oxazole-4-carboxamide] | – | – | inhibition at 0.3 µM [5]: 15%
O=C1COc2cccc(C(=O)NCc3ccc(C(F)(F)F)cc3)c2N1 [Example 62, N-(4-(trifluoromethyl)benzyl)-3,4-dihydro-3-oxo-2H-benzo[b][1,4]oxazine-5-carboxamide] | – | – | inhibition at 0.3 µM [5]: 8%
O=C1COc2cccc(C(=O)NCc3ccc(C(F)(F)F)cc3N3CCCCC3)c2N1 [Example 63, N-(4-(trifluoromethyl)-2-(piperidin-1-yl)benzyl)-3,4-dihydro-3-oxo-2H-benzo[b][1,4]oxazine-5-carboxamide] | – | – | inhibition at 0.3 µM [5]: 79%
O=C1COc2c(cccc2C(=O)NCc2ccc(C(F)(F)F)cc2N2CCCCC2)N1 [Example 64, N-(4-(trifluoromethyl)-2-(piperidin-1-yl)benzyl)-3,4-dihydro-3-oxo-2H-benzo[b][1,4]oxazine-8-carboxamide] | – | – | inhibition at 0.3 µM [5]: 65%
O=C1COc2cccc(OC(=O)NCc3ccc(C(F)(F)F)cc3)c2N1 [Example 65, 3,4-dihydro-3-oxo-2H-benzo[b][1,4]oxazin-5-yl 4-(trifluoromethyl)benzylcarbamate] | – | – | inhibition at 0.3 µM (read-out: % inhibition at 300 nM): 4%
CC(C)(C)c1ccc(CNC(=O)Nc2cccc3[nH]c(=O)[nH]c23)c(N2CCCC2)c1 [Example 75, 1-[(4-tert-butyl-2-pyrrolidin-1-yl-phenyl)methyl]-3-(2-oxo-1,3-dihydrobenzimidazol-4-yl)urea] | 100% | > 80% | inhibition at 0.3 µM [1]: ~100%; IC50 [6]: 0.84 nM; IC50 [7]: 0.84 nM
O=C1COc2c(cccc2NC(=O)NCc2ccc(C(F)(F)F)o2)N1 [Example 76, 1-(3-oxo-4H-1,4-benzoxazin-8-yl)-3-[[5-(trifluoromethyl)-2-furyl]methyl]urea] | 40% | – | –
O=C1COc2c(cccc2NC(=O)NCc2ccc(C(F)(F)F)nc2N2CCCCC2)N1 [Example 78, 1-(3-oxo-4H-1,4-benzoxazin-8-yl)-3-[[2-(1-piperidyl)-6-(trifluoromethyl)-3-pyridyl]methyl]urea] | 100% | > 80% | inhibition at 0.3 µM [1]: ~100%; IC50 [7]: 0.61 nM
Cc1ccc(CNC(=O)Nc2cccc3c2OCC(=O)N3)cc1 [Example 79, 1-(3-oxo-4H-1,4-benzoxazin-8-yl)-3-(p-tolylmethyl)urea] | 54% | – | –
Cc1ccc(CNC(=O)Nc2cccc3c2OCC(=O)N3)c(N2CCCCC2)n1 [Example 80, 1-[[6-methyl-2-(1-piperidyl)-3-pyridyl]methyl]-3-(3-oxo-4H-1,4-benzoxazin-8-yl)urea] | 95% | > 80% | inhibition at 0.3 µM [1]: ~100%
CC(C)Oc1cc(C(F)(F)F)ccc1CNC(=O)Nc1cccc2c1OCC(=O)N2 [Example 81, 1-[[2-isopropoxy-4-(trifluoromethyl)phenyl]methyl]-3-(3-oxo-4H-1,4-benzoxazin-8-yl)urea] | 100% | > 80% | inhibition at 0.3 µM [1]: ~100%
Cc1ccc(CNC(=O)Nc2cccc3c2OCC(=O)N3)c(OC(C)C)c1 [Example 84, 1-[(2-isopropoxy-4-methyl-phenyl)methyl]-3-(3-oxo-4H-1,4-benzoxazin-8-yl)urea] | 61% | – | –

Now from value to compound, other results behind:

inhibition at 0.3 µM [2] | inhibition at 0.3 µM [3] | Compound | other results
100% | > 80% | O=C1COc2c(cccc2NC(=O)NCc2ccc(C(F)(F)F)cc2)N1 [Example 45, 1-(4-(trifluoromethyl)benzyl)-3-(3,4-dihydro-3-oxo-2H-benzo[b][1,4]oxazin-8-yl)urea] | inhibition at 0.3 µM [1]: ~100%
71% | – | O=C(NCc1ccc(C(F)(F)F)nc1)Nc1cccc2[nH]c(=O)[nH]c12 [Example 66, 1-(2-oxo-1,3-dihydrobenzimidazol-4-yl)-3-[[6-(trifluoromethyl)-3-pyridyl]methyl]urea] | –
100% | > 80% | CC(C)Oc1cc(C(F)(F)F)ccc1CNC(=O)Nc1cccc2[nH]c(=O)[nH]c12 [Example 67, 1-[[2-isopropoxy-4-(trifluoromethyl)phenyl]methyl]-3-(2-oxo-1,3-dihydrobenzimidazol-4-yl)urea] | inhibition at 0.3 µM [1]: ~100%; IC50 [6]: 20 nM
93% | > 80% | CC(C)Oc1nc(C(F)(F)F)ccc1CNC(=O)Nc1cccc2[nH]c(=O)[nH]c12 [Example 68, 1-[[2-isopropoxy-6-(trifluoromethyl)-3-pyridyl]methyl]-3-(2-oxo-1,3-dihydrobenzimidazol-4-yl)urea] | –
80% | > 80% | CN(C)c1nc(C(F)(F)F)ccc1CNC(=O)Nc1cccc2[nH]c(=O)[nH]c12 [Example 69, 1-[[2-dimethylamino-6-(trifluoromethyl)-3-pyridyl]methyl]-3-(2-oxo-1,3-dihydrobenzimidazol-4-yl)urea] | IC50 [6]: 92 nM
98% | > 80% | CC(C)(C)c1ccc(CNC(=O)Nc2cccc3[nH]c(=O)[nH]c23)cc1 [Example 70, 1-[(4-tert-butylphenyl)methyl]-3-(2-oxo-1,3-dihydrobenzimidazol-4-yl)urea] | inhibition at 0.3 µM [1]: ~100%
40% | – | CN(C)CCOc1nc(C(F)(F)F)ccc1CNC(=O)Nc1cccc2[nH]c(=O)[nH]c12 [Example 72, 1-[[2-(2-dimethylaminoethoxy)-6-(trifluoromethyl)-3-pyridyl]methyl]-3-(2-oxo-1,3-dihydrobenzimidazol-4-yl)urea] | IC50 [6]: 6 nM
25% | – | CN(C)CCOc1cc(C(F)(F)F)ccc1CNC(=O)Nc1cccc2[nH]c(=O)[nH]c12 [Example 73, 1-[[2-(2-dimethylaminoethoxy)-4-(trifluoromethyl)phenyl]methyl]-3-(2-oxo-1,3-dihydrobenzimidazol-4-yl)urea] | IC50 [6]: 1.8 nM; IC50 [7]: 0.1 nM
100% | > 80% | CC(C)(C)c1ccc(CNC(=O)Nc2cccc3[nH]c(=O)[nH]c23)c(Cl)c1 [Example 74, 1-[(4-tert-butyl-2-chloro-phenyl)methyl]-3-(2-oxo-1,3-dihydrobenzimidazol-4-yl)urea] | inhibition at 0.3 µM [1]: ~100%
71% | – | O=C1COc2c(cccc2NC(=O)NCc2ccc(C(F)(F)F)nc2)N1 [Example 77, 1-(3-oxo-4H-1,4-benzoxazin-8-yl)-3-[[6-(trifluoromethyl)-3-pyridyl]methyl]urea] | –
90% | > 80% | COc1nc(C(F)(F)F)ccc1CNC(=O)Nc1cccc2c1OCC(=O)N2 [Example 82, 1-[[2-methoxy-6-(trifluoromethyl)-3-pyridyl]methyl]-3-(3-oxo-4H-1,4-benzoxazin-8-yl)urea] | IC50 [6]: 54 nM
57% | – | O=C1COc2c(cccc2NC(=O)NCc2ccc(C(F)(F)F)cn2)N1 [Example 83, 1-(3-oxo-4H-1,4-benzoxazin-8-yl)-3-[[5-(trifluoromethyl)-2-pyridyl]methyl]urea] | –
